# Laboratory results published in patent publication US20260200928A1, “THERAPEUTIC COMPOUNDS” (Sanofi, priority 2022, published 2026).
# Molecular target: T1, human IL-17A (Homo sapiens, UniProt Q16552)
# T1 construct: purchased R&D Systems 7955-IL/CF
# T1 sequence (Q16552 24-155): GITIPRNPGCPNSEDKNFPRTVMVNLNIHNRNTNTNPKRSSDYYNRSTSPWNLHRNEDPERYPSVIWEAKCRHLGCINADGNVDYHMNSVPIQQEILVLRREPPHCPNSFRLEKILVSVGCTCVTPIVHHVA
# Assay: IL-17A AlphaLISA competition assay (block of IL-17A binding to its receptor IL-17RA)
# Conditions: mean IC50 (n≥2), block of IL-17A binding to IL-17RA
# How it was run: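 Human recombinant IL-17A (7.5 nM stock) pre-incubated 30 min at RT with compound, then IL-17RA/Fc (5 nM stock) added for 90 min; AlphaLISA read with anti-Fc acceptor beads, biotinylated anti-IL-17A antibody (5 nM) and streptavidin donor beads (3 h, dark). IC50 from 4-parameter logistic fit, normalised to DMSO and 4 μM reference inhibitor; n≥2.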
row,Structure (SMILES),IC50
1,"CC(C)(C)OC(=O)NC(C(=O)Nc1cc(CN2C[C@@H](C(F)(F)F)NC2=O)ccn1)C1CCC(F)(F)CC1 (stereo in doubt) [Example 6, Tert-butyl N-[(1S)-1-(4,4-difluorocyclohexyl)-2-oxo-2-[[4-[[(4S)-2-oxo-4-(trifluoro-methyl)imidazolidin-1-yl]methyl]-2-pyridyl]amino]ethyl]carbamate]",566 nM
2,"CC(C)(C)OC(=O)N[C@H](C(=O)Nc1cc(C(NC(=O)CCC(F)(F)F)C2CC2)ccn1)[C@H]1CC[C@H](C)CC1 (single isomer, unassigned; diastereomer 1) [Example 71]",197 nM
3,"COCC(NC(=O)CCC(F)(F)F)c1ccnc(NC(=O)[C@@H](NC(=O)c2nccn2C)C2CCC(F)(F)CC2)c1 (single isomer, unassigned) [Example 140]",7370 nM
4,"COCC(c1ccnc(NC(=O)C(NC(=O)Cc2c(C)noc2C)C2CCC(C)CC2)c1)N1CC(C(F)(F)F)NC1=O [Example 113, (2S)-2-(2-(3,5-dimethyl-isoxazol-4-yl)acetamido)-N-(4-(2-methoxy-1-((S)-2-oxo-4-(trifluoromethyl)-imidazolidin-1-yl)ethyl)-pyridin-2-yl)-2-((1r,4S)-4-methylcyclohexyl)-acetamide]",1000 nM
5,"CC(C)(C)OC(=O)N[C@H](C(=O)Nc1cc(CN2C[C@@H](C(F)(F)F)NC2=O)c(F)cn1)[C@H]1CC[C@H](C)CC1 [Example 50, tert-butyl ((S)-2-((5-fluoro-4-(((S)-2-oxo-4-(trifluoromethyl)imidazolidin-1-yl)methyl)pyridin-2-yl)amino)-1-((1r,4S)-4-methylcyclohexyl)-2-oxoethyl)carbamate]",2950 nM
6,"O=C(N[C@H](C(=O)Nc1cc(CN2C[C@@H](C(F)(F)F)NC2=O)ccn1)C(C1CC1)C1CC1)c1nonc1C1CC1 [Example 16, 4-cyclopropyl-N-((S)-1,1-dicyclopropyl-3-oxo-3-((4-(((S)-2-oxo-4-(trifluoromethyl)imidazolidin-1-yl)methyl)pyridin-2-yl)amino)propan-2-yl)-1,2,5-oxadiazole-3-carboxamide]",157 nM
7,"Cn1nccc1C(=O)N[C@H](C(=O)Nc1cc(CC(=O)NCCC(F)(F)F)ccn1)C(C1CC1)C1CC1 [Example 31, (S)—N-(1,1-dicyclopropyl-3-oxo-3-((4-(2-oxo-2-((3,3,3-trifluoro-propyl)amino)ethyl)pyridin-2-yl)amino)propan-2-yl)-1-methyl-1H-pyrazole-5-carboxamide]",5060 nM
8,"CC(C)n1nccc1C(=O)N[C@H](C(=O)Nc1cc(C(NC(=O)CCC(F)(F)F)C2CC2)ccn1)C(C1CC1)C1CC1 (single isomer, unassigned) [Example 43]",171 nM

# Now those with a lower IC50, led by results:
row,IC50,Structure (SMILES)
1,41 nM,"CCn1nccc1C(=O)N[C@H](C(=O)Nc1cc(C(C2CC2)N2C[C@@H](C(F)(F)F)NC2=O)ccn1)C1CCC(F)(F)CC1 (single isomer, unassigned) [Example 165, N-((1S)-2-((4-((R or S)-cyclopropyl((S)-2-oxo-4-(trifluoromethyl)imidazolidin-1-yl)methyl)pyridin-2-yl)amino)-1-(4,4-difluorocyclohexyl)-2-oxoethyl)-1-ethyl-1H-pyrazole-5-carboxamide]"
2,24 nM,"CCc1conc1C(=O)N[C@H](C(=O)Nc1cc([C@@H](COC)N2CC(F)(F)CNC2=O)ccn1)C1CCC(F)(F)CC1 [Example 177, N-((S)-2-((4-((S)-1-(5,5-difluoro-2-oxotetrahydropyrimidin-1(2H)-yl)-2-methoxyethyl)pyridin-2-yl)amino)-1-(4,4-difluorocyclohexyl)-2-oxoethyl)-4-ethylisoxazole-3-carboxamide]"
3,148 nM,"CC(C)(C)OC(=O)N[C@H](C(=O)Nc1cc(CN2C[C@@H](C(F)(F)F)NC2=O)ccn1)[C@H]1CC[C@H](C)CC1 [Example 1, Tert-butyl ((S)-1-((1r,4S)-4-methylcyclohexyl)-2-oxo-2-((4-(((S)-2-oxo-4-(trifluoro-methyl)imidazolidin-1-yl)methyl)pyridin-2-yl)amino)ethyl)carbamate]"
4,61 nM,"COCC(c1ccnc(NC(=O)[C@@H](NC(=O)c2nonc2C2CC2)[C@H]2CC[C@H](C)CC2)c1)N1C[C@@H](C(F)(F)F)NC1=O (single isomer, unassigned) [Example 59]"
5,105 nM,"CC(C)n1nccc1C(=O)N[C@H](C(=O)Nc1cc(C[C@H]2C[C@@H](C(F)(F)F)NC2=O)ccn1)C1CCC(F)(F)CC1 [Example 225, N-((S)-1-(4,4-difluorocyclohexyl)-2-oxo-2-((4-(((3S,5S)-2-oxo-5-(trifluoromethyl)pyrrolidin-3-yl)methyl)pyridin-2-yl)amino)ethyl)-1-isopropyl-1H-pyrazole-5-carboxamide]"
6,105 nM,"COC[C@H](c1ccnc(NC(=O)[C@@H](NC(=O)c2nonc2OCC(F)(F)F)C2CCC(F)(F)CC2)c1)N1C[C@@H](C(F)(F)F)NC1=O [Example 193, N-((S)-1-(4,4-difluorocyclohexyl)-2-((4-((S)-2-methoxy-1-((S)-2-oxo-4-(trifluoromethyl)imidazolidin-1-yl)ethyl)pyridin-2-yl)amino)-2-oxoethyl)-4-(2,2,2-trifluoroethoxy)-1,2,5-oxadiazole-3-carboxamide]"
7,34 nM,"CC[C@H](c1ccnc(NC(=O)[C@@H](NC(=O)c2nonc2C)[C@H]2CC[C@H](C)CC2)c1)N1C[C@@H](C(F)(F)F)NC1=O [Example 256, 4-methyl-N—((S)-1-((1r,4S)-4-methylcyclohexyl)-2-oxo-2-((4-((R)-1-((S)-2-oxo-4-(trifluoromethyl)imidazolidin-1-yl)propyl)pyridin-2-yl)amino)ethyl)-1,2,5-oxadiazole-3-carboxamide]"
8,53 nM,"CC(C)n1nccc1C(=O)N[C@H](C(=O)Nc1cc(C[C@H]2C[C@@H](C(F)(F)F)NC2=O)ccn1)[C@H]1CC[C@H](C)CC1 [Example 156, 1-isopropyl-N—((S)-1-((1r,4S)-4-methylcyclohexyl)-2-oxo-2-((4-(((3S,5S)-2-oxo-5-(trifluoromethyl)pyrrolidin-3-yl)methyl)pyridin-2-yl)amino)ethyl)-1H-pyrazole-5-carboxamide]"
9,11 nM,"COCC(c1ccnc(NC(=O)[C@@H](NC(=O)c2nonc2C2CC2)[C@H]2CC[C@H](C)CC2)c1)N1C[C@@H](C(F)(F)F)NC1=O (single isomer, unassigned) [Example 58]"
10,69 nM,"COCC(c1ccnc(NC(=O)[C@@H](NC(=O)c2ccnn2C(C)C)[C@H]2CC[C@H](C)CC2)c1)N1C[C@@H](C(F)(F)F)NC1=O (single isomer, unassigned) [Example 78]"
11,21 nM,"CC(c1ccnc(NC(=O)[C@@H](NC(=O)c2nonc2C2CC2)C2CCC(F)(F)CC2)c1)N1C[C@@H](C(F)(F)F)NC1=O (single isomer, unassigned) [Example 170, 4-cyclopropyl-N-((S)-1-(4,4-difluorocyclohexyl)-2-oxo-2-((4-((R or S)-1-((S)-2-oxo-4-(trifluoromethyl)imidazolidin-1-yl)ethyl)pyridin-2-yl)amino)ethyl)-1,2,5-oxadiazole-3-carboxamide]"
